Measurements from patent US20220347299A1, “FLUORESCENT SYSTEMS FOR BIOLOGICAL IMAGING AND USES THEREOF” (LIGHTOX LIMITED, priority 2019, published 2022).

Legend:
Bacillus subtilis = experiment: Overnight growth curve (OD 600 nm) cytotoxicity assay, B. subtilis; format: cell-based
Method: A sample of B. subtilis was taken from a plate culture and inoculated into Luria Broth to culture overnight at 37° C. for approximately 16 hours. [table] Samples were incubated in darkness at room temperature for approximately 2 hrs. A black clear bottom Costar™-96 well plate was then filled, with 200 μl of sample in each well Cells were irradiated for 5 minutes at approximately 15 mW/cm^2. The cytotoxicity of the compounds without irradiation was also assessed. The 96 well plate was put into the plate reader and set up to run a growth curve protocol using the following parameters: • Incubation temperature: 37° C. • OD read wavelength 600 nm • 250 cycles, readings every 5 rains • Shaking for 5 s pre-reading This was left to run overnight to obtain kinetic growth curves based on optical density readings.

HaCaT keratinocytes = experiment: Co-staining with organelle markers, co-localisation (PCC); format: cell-based; settings: 1 μM compound, 30 minutes, BODIPY ER-Tracker Red
Method: To study the localisation of compounds in biological cells, co-staining of compounds of formula I with specific organelle markers (fluorescent dyes and antibodies) within biological cells was conducted. The following compounds were studied: compounds 6, 7, 12, 13, 14 and 15. HaCaT keratinocyte cell lines were used for the following experimental procedures. The cells were incubated in cell culture media (94% Dulbecco's Modified Eagle Medium (DMEM), 5% Foetal Bovine Serum (FBS) and 1% Penicillin Streptomycin solution (Pen-Strep). The cells were plated in 8-well plates, at a concentration of 25,000 cells per ml. 200 μl of cell suspension was added to each well, and the cells were incubated for 2 days before staining and imaging was carried out. In order to visualise the mitochondria, cells were probed with the mitochondrial dye MitoTracker® Deep Red. Cells to be stained were incubated with 200 μl MitoTracker® Deep Red solution (200 nM MitoTracker® and 1 μM Formula I compound in cell culture media) per well (N=3) for 30 minutes. Nile Red was used to identify lipids within the cells. 200 μl Nile Red Lipophilic dye (10 μg/ml Nile Red and 1 μM Formula I compound in cell culture media) was added to each well (N=3) and incubated for 30 minutes. For the detection of lysosomes within the cells, LysoTracker® Red DND-99 dye was used. 200 μl LysoTracker® Red DND-99 (50 nM LysoTracker® and 1 μM Formula I compound solution in cell culture media) was added to each well (N=3) and incubated for 30 minutes. For visualisation of the endoplasmic reticulum (ER), cells were stained with BODIPY® ER-Tracker® Red. 200 μl BODIPY ER-Tracker® Red (1 μM BODIPY® and 1 μM Formula I compound solution in cell culture media) was added to each well (N=3) and incubated for 30 minutes. Following incubation, the cell culture media containing dye was removed, and cells were washed twice with 200 μl phosphate buffered saline (PBS). After washing, 200 μl PBS was added into each well for imaging. For visualisation of the nuclear lamina, cells were probed with an anti-lamin A/C antibody. The cells were plated on 22×22 mm cover slips (10,000 cells/ml) and incubated for 2 days before staining. The cells were washed with PBS to remove excess media before staining. The cells were fixed with 4% paraformaldehyde (PFA) for 10 minutes at room temperature, before being washed twice in PBS for 5 minutes. Following washing, the cells were permeabilised in 0.4% Triton X-100 in PBS for 10 minutes. The cells were subsequently washed three times in PBS for 5 minutes, before being incubated in blocking buffer (1% BSA, 0.1% fish gelatine and 0.1% Triton X-100 in PBS) for 15 minutes at room temperature. The cells were incubated in primary antibody (mouse anti-lamin A/C IgG in blocking buffer) for 1 hour at room temperature. The cells were then washed twice in blocking buffer and incubated in secondary antibody (anti-mouse Alexa-594 IgG in blocking buffer) for 30 minutes at room temperature. Cells were washed twice in PBS for 10 minutes at room temperature. For cell staining with compounds of formula I, 5 μM of the compound of formula I in PBS was added to the cells for 30 minutes at room temperature. Cells were then washed five times for 5 minutes in PBS. Following washing, the cells were mounted onto non-charged microscopy slides using 6 μl Mowiol® per cover slip as mounting media. A Zeiss 880 confocal microscope was used for all the imaging work. [table] Image) Coloc2 software was used to calculate co-localization statistics between the compounds of formula I and the organelle marker images. The background was subtracted from each image and a region of interest (ROI) was used to target the analysis. The point spread function (PSF) of each image was calculated as 2.0 and Coastes' iterations was set to 100. The statistic quantified was the Pearson's Correlation Coefficient (PCC). PCC gives a number ranging from +1 to −1:1=perfect co-localisation; 0=no relationship; and, −1=perfect anti-co-localisation. […]

black-grass cells = experiment: Cytotoxicity assay (FDA/PI) in black-grass cell suspension culture; format: cell-based
Method: 5 mL of black-grass cell suspension culture was treated with 0.1, 1, 5, and 10 μM of compound numbers 7, 14, 12 and 15 for 1 hour at room temperature. Cells treated with 0.1% DMSO were used as a control. Cells were irradiated (˜365 nm) for 5 minutes before being incubated at 25° C., 150 rpm for 24 hours. In addition, the cytotoxicity of the compounds without irradiation was also assessed. Cell viability of five biological replicates for each concentration were determined via fluorescence assay (FDA/PI) assay. Percentage of cell viability was calculated using following formulation:
% viability={live cells (FDA)/(live cells+dead cells)}×100
The statistical analysis of percentage of cell viability was performed through one-way analysis of variance (ANOVA) followed by Tukey HSD posthoc test using SPSS 23 (IBM, Chicago, Ill., USA).

[1] = Peak absorption and fluorescence emission wavelengths in solvents; format: physicochemical; settings: for λem(max)/nm: 100 nM, excitation at peak of absorption; for λabs(max)/nm: 10 μM
Method: Peak absorption and fluorescence emission wavelengths of compounds 6, 7, 12, 13, 14, 15, 19, 23, 27, 30 and 34 were measured in a variety of solvents, and the results are shown in Table 1. Absorption measurements were recorded at a concentration of 10 μM, and emission measurements were recorded at a concentration of 100 nM. Emission spectra were recorded with excitation at the peak of absorption (S0→S1).

COC(=O)/C=C/c1ccc(C#Cc2ccc(N(C)CCN)cc2)cc1 [Compound 12, methyl (2E)-3-[4-(2-{4-[(2-aminoethyl)(methyl)amino]phenyl}ethynyl)phenyl]prop-2-enoate]
growth of B. subtilis, non-irradiated (Bacillus subtilis; 1 μM, not irradiated): slightly less growth than the untreated samples as well as an increased lag time
growth of B. subtilis (Bacillus subtilis; 100 μM and 10 μM, with or without photoactivation): no growth is observed regardless of any photoactivation
cytotoxicity in B. subtilis compared with compound 6 (Bacillus subtilis; 10 and 1 μM): more cytotoxicity
average PCC Value with BODIPY ER-Tracker (HaCaT keratinocytes): 0.34
black-grass cell viability (black-grass cells; 5 μM and 10 μM, after ~365 nm irradiation): significantly reduced
dependence of cytotoxic effect on irradiation (black-grass cells; black-grass cells, ~365 nm, 5 minutes): only observed after irradiation
λem(max)/nm ([1]; DCM): 551 nm
λabs(max)/nm ([1]; DCM): 371 nm
λem(max)/nm ([1]; Toluene): 482 nm
λabs(max)/nm ([1]; Toluene): 380 nm
